These results are taken from publication PMC8784640, “New insights into the molecular mechanisms of glutaminase C inhibitors in cancer cells using serial room temperature crystallography” (The Journal of Biological Chemistry, 2021).

Structures are written as SMILES. Positions count from the first letter of the chain named. “And” between values parts separate entries of the source, which are not always exact repeats. Equal values may be shown once.

In one data set the test system is mouse GAC (K325A). Set-up: method as in PMID 23935106. To be noted: concentrations as high as 10 μM; equivalent to human GAC (K320A); cited from earlier work.
On the set-up of data set [1]: method as in PMID 26988803. The conditions noted are these: compared with BPTES; cited from earlier work.
The target in a further data set is T1, GAC (F318A and Y466W) (Mus musculus, UniProt D3Z7P3, F323A/Y471W).
T1 sequence (D3Z7P3 128-555 F323A/Y471W): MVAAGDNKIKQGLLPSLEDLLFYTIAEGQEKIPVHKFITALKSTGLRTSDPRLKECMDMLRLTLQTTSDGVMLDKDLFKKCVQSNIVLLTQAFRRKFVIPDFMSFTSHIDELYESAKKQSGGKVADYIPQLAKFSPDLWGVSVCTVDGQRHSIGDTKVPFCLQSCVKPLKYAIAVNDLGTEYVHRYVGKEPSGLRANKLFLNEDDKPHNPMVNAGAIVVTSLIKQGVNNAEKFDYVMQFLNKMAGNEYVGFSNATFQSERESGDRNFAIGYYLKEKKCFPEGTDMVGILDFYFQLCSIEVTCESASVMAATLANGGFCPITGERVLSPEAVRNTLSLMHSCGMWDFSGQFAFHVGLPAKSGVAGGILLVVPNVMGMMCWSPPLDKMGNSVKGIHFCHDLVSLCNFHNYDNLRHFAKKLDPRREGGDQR
The data set is described as follows: Tryptophan fluorescence quenching binding assay, GAC (F318A and Y466W). To be noted: GAC mutant F318A, Trp 466 fluorescence, read-out: Kd (apparent).

The next data set deals with recombinant GAC. Also on record: method as in PMID 26988803. To be noted: cited from earlier work; for IC50: recombinant GAC (50 nM), total glutamine hydrolysis.
The next data set deals with T2, GAC (Y466W) (Mus musculus, UniProt D3Z7P3, Y471W).
T2 sequence (D3Z7P3 72-603 isoform D3Z7P3-2 Y471W limits assumed): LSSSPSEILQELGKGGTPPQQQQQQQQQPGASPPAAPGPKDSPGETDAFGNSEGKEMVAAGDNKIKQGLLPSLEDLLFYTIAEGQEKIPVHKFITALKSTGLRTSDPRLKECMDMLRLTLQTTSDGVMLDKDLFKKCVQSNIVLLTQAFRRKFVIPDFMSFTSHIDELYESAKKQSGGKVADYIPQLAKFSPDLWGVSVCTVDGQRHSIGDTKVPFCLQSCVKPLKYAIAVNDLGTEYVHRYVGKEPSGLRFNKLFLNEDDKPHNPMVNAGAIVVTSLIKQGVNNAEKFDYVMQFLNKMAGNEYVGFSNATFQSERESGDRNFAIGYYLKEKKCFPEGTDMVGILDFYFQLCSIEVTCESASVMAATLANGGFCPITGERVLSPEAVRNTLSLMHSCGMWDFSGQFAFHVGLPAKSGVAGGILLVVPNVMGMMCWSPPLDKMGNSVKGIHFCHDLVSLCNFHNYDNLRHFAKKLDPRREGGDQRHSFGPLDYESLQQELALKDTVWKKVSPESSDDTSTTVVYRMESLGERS
Briefly: Tryptophan fluorescence quenching binding assay, GAC (Y466W). The conditions noted are these: for Kd: Kd (apparent), Trp 466 fluorescence quenching.

For another data set, the target named is T3, GAC (R317A and Y466W) (Mus musculus, UniProt D3Z7P3, R322A/Y471W).
T3 sequence (D3Z7P3 128-555 R322A/Y471W): T1 sequence (D3Z7P3 128-555 F323A/Y471W) with R195A, A196F
The data set is described as follows: Tryptophan fluorescence quenching binding assay, GAC (R317A and Y466W). To be noted: GAC mutant R317A, Trp 466 fluorescence, read-out: Kd (apparent).

A further data set has as its target T4, GAC (K320A and Y466W) (Mus musculus, UniProt D3Z7P3, K325A/Y471W).
T4 construct: made in house
T4 sequence (D3Z7P3 72-603 isoform D3Z7P3-2 K325A/Y471W): T2 sequence (D3Z7P3 72-603 isoform D3Z7P3-2 Y471W limits assumed) with K254A
The data set is described as follows: Tryptophan fluorescence quenching binding assay, GAC (K320A and Y466W). The conditions noted are these: GAC mutant K320A, Trp 466 fluorescence, read-out: Kd (apparent).

In the next data set the target is T5, GAC (F322W) (Mus musculus, UniProt D3Z7P3, F327W).
T5 sequence (D3Z7P3 72-603 isoform D3Z7P3-2 F327W limits assumed): T2 sequence (D3Z7P3 72-603 isoform D3Z7P3-2 Y471W limits assumed) with F256W, W400Y
The data set is described as follows: Tryptophan fluorescence quenching binding assay, GAC (F322W).

Description for GAC (F322W): (§1) We first examined their ability to alter the conformation of the activation loop, that is, the site where the compounds bind to GAC ([15], [28]). […] We then treated the GAC (Y466W) mutant with each molecule to monitor conformational changes within the substrate-binding site ([15], [28]).
(§2) Mouse GAC (F327W) and GAC (Y471W), which correspond to human GAC (F322W) and GAC (Y466W), were prepared as previously described ([14], [28]), except that the protein was eluted in a higher salt buffer during FPLC purification (500 mM NaCl, 20 mM Tris–HCl, pH 8.5) to enhance protein stability. Assays were then conducted as previously described ([14], [28]). Briefly, 100 nM GAC (F327W) or GAC (Y471W) was solvated in 1 ml of 50 mM Tris-acetate, pH 8.5, with 0.1 mM EDTA and the indicated amount of inhibitor.
Description for GAC (Y466W): as §1, §2

For the molecule `O=C(Cc1ccccc1)Nc1nnc(CCSCCc2nnc(NC(=O)Cc3ccccc3)s2)s1` [BPTES, bis-2-(5-phenylacetamido-1,3,4-thiadiazol-2-yl)ethyl sulfide, reference compound], the “inhibition of mouse GAC (K325A)” value with mouse GAC (K325A) is “resistant to inhibition”.

Consider `O=C(Cc1cccc(OC(F)(F)F)c1)Nc1ccc(CCCCc2nnc(NC(=O)Cc3ccccn3)s2)nn1` [CB-839, reference compound], for which the “calculated logP relative to BPTES” value in data set [1] is listed as “higher calculated logP”.

For orientation: IC50 means the midpoint of a concentration-inhibition curve. As for `O=C(Cc1ccccc1)Nc1nnc(NC2CCN(c3nnc(NC(=O)Cc4ccccc4)s3)CC2)s1` [UPGL00004], the Kd at GAC (F318A and Y466W) was 24 nM; at GAC (Y466W) (100 nM GAC (Y466W)) it was 76 nM; on GAC (R317A and Y466W), 38 nM; on GAC (K320A and Y466W), > 1000 nM. Further, in the data set with recombinant GAC, the IC50 is 29 nM.

In the case of `O=C(Cc1ccccc1)Nc1nnc(O[C@H]2CCN(c3nnc(NC(=O)Cc4ccccc4)s3)C2)s1` [UPGL00015], the IC50 in the data set on recombinant GAC was 40 nM.

What is called inhibition is the relative decrease from the control value, in per cent. In the case of `Nc1nnc(OC2CCN(c3nnc(N)s3)CC2)s1` [UPGL00018], the inhibition in the data set on recombinant GAC (at 10 μM, catalytic data of this paper come from ref 20) is on record as ~20%. Moreover, the IC50 in the data set on recombinant GAC is > 10000 nM. For the same molecule, the Kd at GAC (F322W) and at GAC (Y466W) (100 nM GAC (Y466W)) was > 1000 nM each time. Besides, the “lowest concentration with statistically significant quenching” value on GAC (F322W) (GAC (F322W)) is 240 nM. For the same molecule, the “quenching of Trp 322 fluorescence (in words)” value at GAC (F322W) (GAC (F322W)) is “largely ineffective at micromolar concentrations”. For the same molecule, the “competition with UPGL00019 for GAC binding” value on GAC (Y466W) (100 nM GAC (Y466W), 1 μM UPGL00018 and 1 μM UPGL00019, simultaneous or sequential) was “unable to compete away UPGL00019”. Besides, the “quenching of Trp 466 fluorescence / binding (in words)” value at GAC (Y466W) (GAC (Y466W)) was “markedly less effective”. Also, the “lowest concentration with statistically significant effect on tryptophan fluorescence” value at GAC (Y466W) (GAC (Y466W), highest tested concentration, effect minimal) was found to be 980 nM.

For `O=C(Cc1ccccc1)Nc1nnc(OC2CCN(c3nnc(NC(=O)Cc4ccccc4)s3)CC2)s1` [UPGL00019], the Kd at GAC (F318A and Y466W) is 54 nM; at GAC (F322W) it was 54.5 nM; on GAC (Y466W) (100 nM GAC (Y466W)), 28.7 nM and 29 nM; at GAC (R317A and Y466W), 31 nM; at GAC (K320A and Y466W), > 1000 nM. In addition, in the data set with recombinant GAC, the IC50 was 30 nM. Also, at GAC (F322W) (GAC (F322W)), the “quenching of Trp 322 fluorescence (in words)” value was “quenching of Trp 322 fluorescence”. The “quenching of Trp 466 fluorescence / binding (in words)” value at GAC (Y466W) (GAC (Y466W)) is on record as “effective at causing a quenching of Trp 466 fluorescence”.

As to `CC(=O)Nc1nnc(OC2CCN(c3nnc(NC(C)=O)s3)CC2)s1` [UPGL00020], the half-maximal inhibitory concentration (IC50) in the data set on recombinant GAC is 1050 nM. The “quenching of Trp 466 fluorescence / binding (in words)” value at GAC (Y466W) (GAC (Y466W)) is listed as “significantly reduced binding”.

With `Nc1nnc(N2CCC(Oc3nnc(NC(=O)Cc4ccccc4)s3)CC2)s1` [UPGL00031], the IC50 in the data set with recombinant GAC was 203 nM. Besides, the Kd turned out to be 34.4 nM on GAC (F322W) and 27.2 nM on GAC (Y466W) (100 nM GAC (Y466W)). Besides, the “quenching of Trp 322 fluorescence (in words)” value on GAC (F322W) (GAC (F322W)) is on record as “quenching of Trp 322 fluorescence”. Also, the “quenching of Trp 466 fluorescence / binding (in words)” value on GAC (Y466W) (GAC (Y466W)) is “effective at causing a quenching of Trp 466 fluorescence”.

For the molecule `O=C(Cc1ccccc1)Nc1ccc(OC2CCN(c3ccc(NC(=O)Cc4ccccc4)nn3)CC2)nn1` [UPGL00045], the IC50 in the data set with recombinant GAC was 98 nM.
